Active and inactive are the calls of the source. No cut-off for these calls is given here.
What was measured:
[1] = molecular target: Vascular endothelial growth factor receptor 2 (Homo sapiens, UniProt P35968); experiment: Inhibition of recombinant VEGFR2 (unknown origin) using (Glu,Tyr)4:1 as substrate incubated for 60 mins by ELISA
[2] = molecular target: T1, Fibroblast growth factor receptor 2 (Homo sapiens, UniProt P21802); experiment: Inhibition of FGFR2 (unknown origin) at 1 nM using (Glu,Tyr)4:1 as substrate incubated for 60 mins by ELISA
Target sequence in this assay (P21802 22-821 limits assumed): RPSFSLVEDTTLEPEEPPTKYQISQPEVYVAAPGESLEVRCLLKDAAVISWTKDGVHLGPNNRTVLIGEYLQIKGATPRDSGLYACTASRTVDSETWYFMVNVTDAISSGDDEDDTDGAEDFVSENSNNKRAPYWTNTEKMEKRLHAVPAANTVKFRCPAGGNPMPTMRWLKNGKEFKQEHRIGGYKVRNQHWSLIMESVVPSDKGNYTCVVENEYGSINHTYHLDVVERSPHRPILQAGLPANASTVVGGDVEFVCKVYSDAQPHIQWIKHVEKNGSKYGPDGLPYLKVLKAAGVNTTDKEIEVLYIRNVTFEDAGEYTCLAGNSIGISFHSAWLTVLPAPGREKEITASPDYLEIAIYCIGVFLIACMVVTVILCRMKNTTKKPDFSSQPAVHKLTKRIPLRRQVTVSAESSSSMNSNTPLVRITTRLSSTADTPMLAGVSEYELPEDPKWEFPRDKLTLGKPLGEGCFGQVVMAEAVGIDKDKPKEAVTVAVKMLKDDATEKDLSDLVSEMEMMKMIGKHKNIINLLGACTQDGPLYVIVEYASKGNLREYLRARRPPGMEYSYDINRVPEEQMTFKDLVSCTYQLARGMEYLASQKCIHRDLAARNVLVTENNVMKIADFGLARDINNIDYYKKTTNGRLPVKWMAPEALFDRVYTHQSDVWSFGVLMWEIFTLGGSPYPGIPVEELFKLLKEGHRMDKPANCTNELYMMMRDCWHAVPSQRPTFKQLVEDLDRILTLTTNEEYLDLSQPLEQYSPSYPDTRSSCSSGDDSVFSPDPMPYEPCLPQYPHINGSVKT

[3] = molecular target: T2, Fibroblast growth factor receptor 1 (Homo sapiens, UniProt P11362); experiment: Inhibition of FGFR1 phosphorylation in human KG1 cells assessed as reduction of phospho-ERK level at 0.4 to 10 nM incubated for 2 hrs by Western blot analysis; type: cell-based; details: KG-1
Target sequence in this assay (P11362 22-822 limits assumed): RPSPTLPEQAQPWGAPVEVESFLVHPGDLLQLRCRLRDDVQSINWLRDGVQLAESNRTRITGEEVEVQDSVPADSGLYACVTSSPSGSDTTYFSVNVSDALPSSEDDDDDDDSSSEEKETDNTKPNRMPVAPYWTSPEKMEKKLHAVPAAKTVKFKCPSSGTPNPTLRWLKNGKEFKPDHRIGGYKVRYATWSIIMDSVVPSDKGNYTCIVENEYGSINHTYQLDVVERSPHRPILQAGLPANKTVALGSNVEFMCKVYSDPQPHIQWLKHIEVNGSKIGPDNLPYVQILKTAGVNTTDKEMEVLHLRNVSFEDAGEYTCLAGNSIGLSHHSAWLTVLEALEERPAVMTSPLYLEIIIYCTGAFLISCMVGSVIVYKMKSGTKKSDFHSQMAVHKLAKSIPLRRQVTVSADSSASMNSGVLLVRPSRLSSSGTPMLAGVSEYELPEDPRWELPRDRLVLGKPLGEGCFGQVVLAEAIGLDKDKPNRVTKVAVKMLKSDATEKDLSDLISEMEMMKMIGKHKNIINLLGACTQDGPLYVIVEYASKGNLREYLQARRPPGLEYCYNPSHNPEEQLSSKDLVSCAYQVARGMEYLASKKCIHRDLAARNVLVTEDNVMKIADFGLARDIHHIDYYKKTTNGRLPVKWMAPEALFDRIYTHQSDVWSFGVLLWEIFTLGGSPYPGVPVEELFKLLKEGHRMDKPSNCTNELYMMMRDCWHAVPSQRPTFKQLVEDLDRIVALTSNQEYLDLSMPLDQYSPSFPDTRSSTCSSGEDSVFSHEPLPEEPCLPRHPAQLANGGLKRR

[4] = molecular target: T2, Fibroblast growth factor receptor 1; experiment: Inhibition of FGFR1 phosphorylation in human KG1 cells incubated for 2 hrs by Western blot analysis; type: cell-based; details: KG-1
Target sequence in this assay (P11362 22-822 limits assumed): as above

[5] = molecular target: T2, Fibroblast growth factor receptor 1; experiment: Inhibition of recombinant FGFR1 (unknown origin) using (Glu,Tyr)4:1 as substrate incubated for 60 mins by ELISA
[6] = molecular target: Fibroblast growth factor receptor 4 (Homo sapiens, UniProt P22455); experiment: Inhibition of recombinant FGFR4 (unknown origin) using (Glu,Tyr)4:1 as substrate incubated for 60 mins by ELISA
[7] = molecular target: T2, Fibroblast growth factor receptor 1; experiment: Inhibition of FGFR1 phosphorylation in human KG1 cells assessed as reduction of phospho-PLCgamma level at 0.4 to 10 nM incubated for 2 hrs by Western blot analysis; type: cell-based; details: KG-1
Target sequence in this assay (P11362 22-822 limits assumed): as above

[8] = molecular target: Fibroblast growth factor receptor 3 (Homo sapiens, UniProt P22607); experiment: Inhibition of recombinant FGFR3 (unknown origin) using (Glu,Tyr)4:1 as substrate incubated for 60 mins by ELISA
[9] = molecular target: T1, Fibroblast growth factor receptor 2; experiment: Inhibition of recombinant FGFR2 (unknown origin) at 10 nM using (Glu,Tyr)4:1 as substrate incubated for 60 mins by ELISA
Target sequence in this assay (P21802 22-821 limits assumed): as the sequence (P21802 22-821 limits assumed) above

[10] = molecular target: T1, Fibroblast growth factor receptor 2; experiment: Inhibition of recombinant FGFR2 (unknown origin) using (Glu,Tyr)4:1 as substrate incubated for 60 mins by ELISA
Target sequence in this assay (P21802 whole entry): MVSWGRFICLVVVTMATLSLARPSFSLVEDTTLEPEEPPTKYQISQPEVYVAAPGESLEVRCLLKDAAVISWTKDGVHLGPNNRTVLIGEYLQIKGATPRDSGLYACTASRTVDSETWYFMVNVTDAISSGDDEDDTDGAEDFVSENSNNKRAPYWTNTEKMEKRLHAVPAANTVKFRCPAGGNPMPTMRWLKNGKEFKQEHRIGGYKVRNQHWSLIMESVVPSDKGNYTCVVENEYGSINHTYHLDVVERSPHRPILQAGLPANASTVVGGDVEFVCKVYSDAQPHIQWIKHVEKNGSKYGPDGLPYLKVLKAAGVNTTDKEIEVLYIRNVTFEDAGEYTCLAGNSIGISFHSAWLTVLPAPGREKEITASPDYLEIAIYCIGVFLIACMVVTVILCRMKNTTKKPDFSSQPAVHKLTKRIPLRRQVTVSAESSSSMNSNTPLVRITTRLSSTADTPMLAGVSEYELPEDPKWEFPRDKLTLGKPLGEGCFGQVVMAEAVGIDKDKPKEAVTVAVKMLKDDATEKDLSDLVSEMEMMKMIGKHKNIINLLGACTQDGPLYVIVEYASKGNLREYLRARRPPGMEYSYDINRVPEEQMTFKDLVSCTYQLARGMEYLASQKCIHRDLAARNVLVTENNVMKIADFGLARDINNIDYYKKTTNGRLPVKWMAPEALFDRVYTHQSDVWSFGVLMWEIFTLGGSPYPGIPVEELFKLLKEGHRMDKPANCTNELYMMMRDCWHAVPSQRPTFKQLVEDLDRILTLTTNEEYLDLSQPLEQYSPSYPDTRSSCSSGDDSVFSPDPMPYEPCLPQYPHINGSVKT

Vascular endothelial growth factor receptor 2, sequence (P35968 whole entry): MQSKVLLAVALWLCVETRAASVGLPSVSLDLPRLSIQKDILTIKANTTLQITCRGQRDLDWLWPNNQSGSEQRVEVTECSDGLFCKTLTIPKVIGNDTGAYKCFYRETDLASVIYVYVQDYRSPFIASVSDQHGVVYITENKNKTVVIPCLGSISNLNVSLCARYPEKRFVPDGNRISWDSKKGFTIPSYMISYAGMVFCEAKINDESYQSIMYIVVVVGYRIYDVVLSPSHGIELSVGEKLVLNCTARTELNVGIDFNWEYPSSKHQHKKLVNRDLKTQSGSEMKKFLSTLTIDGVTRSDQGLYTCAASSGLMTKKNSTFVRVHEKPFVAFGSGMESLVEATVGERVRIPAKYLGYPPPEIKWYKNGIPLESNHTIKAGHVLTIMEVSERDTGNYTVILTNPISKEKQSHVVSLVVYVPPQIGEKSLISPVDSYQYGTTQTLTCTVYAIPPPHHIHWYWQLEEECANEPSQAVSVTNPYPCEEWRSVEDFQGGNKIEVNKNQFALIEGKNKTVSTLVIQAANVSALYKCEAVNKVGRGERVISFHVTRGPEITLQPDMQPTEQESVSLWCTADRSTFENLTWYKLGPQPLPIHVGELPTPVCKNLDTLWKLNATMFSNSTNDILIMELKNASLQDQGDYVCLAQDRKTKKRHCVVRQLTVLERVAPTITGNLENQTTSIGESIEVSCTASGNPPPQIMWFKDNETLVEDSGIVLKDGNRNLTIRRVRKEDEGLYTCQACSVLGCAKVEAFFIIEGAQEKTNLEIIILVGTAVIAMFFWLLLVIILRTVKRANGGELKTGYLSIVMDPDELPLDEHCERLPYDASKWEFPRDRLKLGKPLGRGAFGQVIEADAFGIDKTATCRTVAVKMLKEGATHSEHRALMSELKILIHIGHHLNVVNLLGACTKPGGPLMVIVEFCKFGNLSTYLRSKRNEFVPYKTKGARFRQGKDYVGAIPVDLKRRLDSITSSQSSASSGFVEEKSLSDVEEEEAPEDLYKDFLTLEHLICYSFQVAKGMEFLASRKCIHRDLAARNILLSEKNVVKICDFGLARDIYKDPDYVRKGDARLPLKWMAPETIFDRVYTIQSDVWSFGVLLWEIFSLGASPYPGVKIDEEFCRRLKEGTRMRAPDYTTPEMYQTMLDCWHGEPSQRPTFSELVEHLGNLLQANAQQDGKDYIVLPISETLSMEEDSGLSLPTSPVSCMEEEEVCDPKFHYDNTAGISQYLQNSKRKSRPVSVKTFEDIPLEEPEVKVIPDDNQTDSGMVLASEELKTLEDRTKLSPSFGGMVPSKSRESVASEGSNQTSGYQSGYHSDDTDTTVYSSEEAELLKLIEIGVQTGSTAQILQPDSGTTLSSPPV
Fibroblast growth factor receptor 4, sequence (P22455 whole entry): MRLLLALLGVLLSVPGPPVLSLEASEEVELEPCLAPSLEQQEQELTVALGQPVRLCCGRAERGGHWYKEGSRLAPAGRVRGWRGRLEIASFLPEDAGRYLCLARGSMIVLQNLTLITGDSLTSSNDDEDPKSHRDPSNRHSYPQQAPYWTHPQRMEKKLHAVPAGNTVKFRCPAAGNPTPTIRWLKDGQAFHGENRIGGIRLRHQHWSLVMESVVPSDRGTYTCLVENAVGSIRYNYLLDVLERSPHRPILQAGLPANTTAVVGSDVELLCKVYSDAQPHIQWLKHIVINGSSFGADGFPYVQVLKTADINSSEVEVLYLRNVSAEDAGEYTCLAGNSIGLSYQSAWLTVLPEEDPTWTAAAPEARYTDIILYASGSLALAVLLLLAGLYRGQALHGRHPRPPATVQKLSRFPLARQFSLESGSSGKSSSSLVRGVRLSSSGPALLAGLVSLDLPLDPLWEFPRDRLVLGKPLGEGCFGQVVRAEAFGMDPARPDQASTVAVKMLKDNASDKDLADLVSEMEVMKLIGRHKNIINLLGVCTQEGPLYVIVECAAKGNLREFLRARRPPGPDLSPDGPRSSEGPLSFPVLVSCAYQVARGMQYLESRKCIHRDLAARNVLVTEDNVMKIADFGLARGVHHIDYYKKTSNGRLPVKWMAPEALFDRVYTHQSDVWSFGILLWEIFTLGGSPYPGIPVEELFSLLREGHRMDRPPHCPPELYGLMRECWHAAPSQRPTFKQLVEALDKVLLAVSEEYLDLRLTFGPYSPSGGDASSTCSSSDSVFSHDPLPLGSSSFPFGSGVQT

With `CCc1nc(Nc2cc(CCc3cc(OC)cc(OC)c3)[nH]n2)c2ccc(N3CCN(CC)CC3)cc2n1` the IC50 [1] was 35.8 nM.

`CCN1CCN(c2ccc3c(Nc4cc(CCc5c(Cl)c(OC)cc(OC)c5Cl)[nH]n4)ncnc3c2)CC1` was tested, and the IC50 [1] was 17.5 nM.

For `COc1cc(CCc2cc(Nc3ncnc4cc(N5CCCCC5)ccc34)n[nH]2)cc(OC)c1`, the inhibition [2] was 87.4%.

In the case of `COCCOc1ccc2c(Nc3cc(CCc4cc(OC)cc(OC)c4)[nH]n3)ncnc2c1`, the IC50 [1] is reported as over 100 nM.

`COc1cc(CCc2cc(Nc3ncnc4cc(NCCN5CCOCC5)ccc34)n[nH]2)cc(OC)c1` showed an IC50 [1] of over 100 nM.

With `COc1cc(CCc2cc(Nc3ncnc4cc(N5CCN6CCCCC6C5)ccc34)n[nH]2)cc(OC)c1` (stereo unspecified) the inhibition [3] was “Active”, the inhibition [4] was “Dose-dependent effect” and the IC50 [5] was 1 nM. The IC50 [1] was 21.5 nM, the IC50 [6] was 52.7 nM and the inhibition [7] was “Active”. The IC50 [8] was 5 nM.

In the case of `COc1cc(CCc2cc(Nc3ncnc4cc(N5CCN(S(=O)(=O)c6ccc(C)cc6)CC5)ccc34)n[nH]2)cc(OC)c1`, the inhibition [9] is reported as 41.8%.

`CCN1CCN(c2ccc3c(Nc4cc(CCc5cc(OC)cc(OC)c5)[nH]n4)nc(NCc4cc(C)no4)nc3c2)CC1` showed an IC50 [10] of under 10 nM.

For `COc1cc(CCc2cc(Nc3ncnc4cc(OC)ccc34)n[nH]2)cc(OC)c1`, the inhibition [2] was 16.9% and the inhibition [9] was 73.3%.

— ChEMBL document CHEMBL3797059 (Bioorg Med Chem Lett, 2016)
